Measured values: paper PMC13492380, “Dissecting Structural and Functional Determinants of Microtubules Stabilization through Guided Chemical Modulation” (Journal of Medicinal Chemistry, 2026)

Test system: Tau441 interaction with MTs in axon-like processes of neuronally differentiated PC12 cells
Test: Fluorescence decay after photoactivation (FDAP) of PAGFP-Tau441
Type: cell-based, human
Excerpt: Building on the role of Tau dynamics in axonal MT function, , we next used Tau as a structural sensitive neuronal MAP to assess whether drug-imposed MT lattice states alter MAP recognition. To this end, we initially performed fluorescence decay after photoactivation (FDAP) experiments to assess potential changes in the interaction of the longest human Central Nervous System Tau isoform (Tau441) with MTs in axon-like processes of model neurons. We tagged Tau at the N-terminus with photoactivatable GFP (PAGFP) and expressed it exogenously in PC12 cells differentiated into a neuronal phenotype (Figure A). After locally activating a subset of labeled Tau molecules in the middle of a process, we monitored FDAP over time in the activated region (Figure B). Tau gradually dissipated from the activation site.
To quantify changes in Tau’s effective diffusion constant (D eff) as a result of its dynamic interactions with MTs, we measured FDAP at various compound concentrations and fitted the resulting decay curves using a previously established reaction-diffusion model. […] Remarkably, the GDP-like MTs stabilized by compound 1b remain largely neutral with respect to Tau-MT interactions.
PC12 cells (originally obtained from J.A. Wagner, Harvard Medical School) were cultured in serum-DMEM (DMEM supplemented with 10% fetal bovine serum and antibiotics (100 U/ml penicillin and 100 μg/mL streptomycin)) at 37 °C with 10% CO2 in a humidified incubator. For live cell imaging, cells were transfected with the respective pRc/CMV expression vector using Lipofectamine 2000 (Thermo-Fisher Scientific, USA) as previously described. FDAP experiments were performed essentially as previously described. Briefly, cells expressing PAGFP-tagged Tau441 were plated on 35 mm glass-bottom culture dishes (MatTek, USA), transfected, and neuronally differentiated by medium exchange to serum-reduced DMEM containing 100 ng/mL 7S mouse NGF. After 3 days, the medium was exchanged to serum-reduced DMEM without phenol red with NGF, and the respective compound (or DMSO for carrier control) were added at the desired concentration. After 20 h, live cell imaging was performed using a laser scanning microscope (Nikon Eclipse Ti2-) equipped with a LU-N4 laser unit with 488 and 405 nm lasers and a Fluor 60× ultraviolet-corrected objective lens (NA 1.4) and a C2+scanner enclosed in an incubation chamber at 37 °C and 5% CO2. Photoactivation was performed with a 405 nm laser using the microscope software (NIS-Elements version AR 5.02.03). The following steps were performed in a photoactivation experiment. A transfected cell with a suitable process (minimum length 30 μm) was selected in the field of view (50 μm × 50 μm) and a preactivation image was saved at 488 nm excitation. The scan window was reduced to a 6-μm diameter activation spot (corresponding to 130 pixels), and photoactivation was performed in the center of the neurite using the 405 nm blue diode (laser intensity 1.0%; corresponding to an output of 30 μW) with two scans at a pixel dwell time of 4.08 μs (corresponding to a total activation time at the spot of 1.1 ms). The scan window was enlarged to the initial size, and the first scan was performed after 1 s with the 488 nm laser at the lowest practical laser intensity. Subsequent images were acquired at a rate of 1 frame/s. 112 images with a resolution of 256 × 256 pixels were collected per activated neurite. […] Effective diffusion constants were determined by fitting the fluorescence decay data from the photoactivation experiments using a one-dimensional diffusion model function for FDAP according to. All data sets were tested for normality using the D’Agostino-Pearson and Shapiro-Wilk tests. Statistical outliers were identified using the ROUT method. Equality was assessed using a F-test to compare variances. To compare different concentrations, statistically significant differences from control were determined by a one-way ANOVA with Dunnett’s post hoc test. […]

SMILES: CC(=O)O[C@H]1C(=O)[C@@]2(C)[C@H]([C@H](OC(=O)c3ccccc3)[C@]3(O)C[C@H](OC(=O)[C@H](O)[C@@H](NC(=O)c4ccccc4)c4ccccc4)C(C)=C1C3(C)C)[C@]1(OC(C)=O)CO[C@@H]1C[C@@H]2O [PTX, Paclitaxel]
- unbound Tau population (20 nM PTX (control 7.5%)): 4.4%
- decrease in the unbound Tau population (20 nM PTX vs control): ~40%
- concentration with notable reduction of Tau's D eff (PC12 cells, 20 h treatment): 5 nM
- effect on Tau's effective diffusion constant (D eff) / Tau-MT interaction (PC12 cells, 20 h treatment): significantly reduced Tau’s D eff

SMILES: COc1ccc2c(c1)CC(NC(=O)CCCCCCCC(=O)OC1CC3OCC3(OC(C)=O)C3C(OC(=O)c4ccccc4)C4(O)CC(OC(=O)C(O)C(NC(=O)c5ccccc5)c5ccccc5)C(C)=C(C(OC(C)=O)C(=O)C13C)C4(C)C)CC2 [1b, 7-O-((S)-9″-(7‴-Methoxy-1‴,2‴,3‴,4‴-tetrahydronaphthalen-2‴-yl)amino) −9″-oxononanoyl) Paclitaxel]
- effect on Tau's effective diffusion constant (D eff) / Tau-MT interaction (PC12 cells, 20 h treatment): did not significantly alter Tau-MT interactions

SMILES: CC(=O)OC1C(=O)C2(C)C(OC(=O)CCCCC(=O)OC3CCc4ccccc43)CC3OCC3(OC(C)=O)C2C(OC(=O)c2ccccc2)C2(O)CC(OC(=O)C(O)C(NC(=O)c3ccccc3)c3ccccc3)C(C)=C1C2(C)C (stereo not drawn) [1a, 7-O-(6″-O-(2‴,3‴-Dihydroinden-1‴-yl)hexanedioyl) Paclitaxel]
- effect on Tau's effective diffusion constant (D eff) / Tau-MT interaction (PC12 cells, 20 h treatment): increasing Tau’s D eff
